Laboratory results as given in patent US9278992B2, “Function-selective vitamin D receptor agonist” (Nihon University, priority 2007, dated 2016).
Entries after “also recorded” stand apart in the source; their conditions may differ.

Experiments:
[1] = tested on: Human myeloid leukemia HL60 cells; assay: Differentiation of myeloid leukemia HL60 cells (Nitro blue tetrazolium-reducing activity); assay type: cell-based; conditions: for induction of differentiation marker (Nitro blue tetrazolium-reducing activity), HL60 cells: 3 days
[2] = Example 5: intraperitoneal administration to mice, body weight and plasma calcium; assay type: in vivo; conditions: 0.7 mmol/kg
Source text: […]. […] […]. Blood was collected by heart puncture on day 8 and tissue mRNAs on day 8 were examined.

[3] = Example 5: oral administration to mice, body weight and plasma calcium; conditions: oral (gavage), 1 mmol/kg
Source text: Blood was collected from the tail on days 0, 2, 4, 6, and 8, and by heart puncture on day 12. Tissue mRNAs on day 12 were examined. * indicates p<0.05; ** indicates p<0.01; *** indicates p<0.001, compared with vehicle control.
(§1) Next, the in vivo effects of orally administered lithocholic acid derivatives (dissolved in corn oil) were examined.

[4] = molecular target: T1, farnesoid X receptor (FXR) (Homo sapiens, UniProt Q96RI1); conditions: Non-Patent Documents 3 and 4; cited from earlier work
T1 sequence (Q96RI1 1-486): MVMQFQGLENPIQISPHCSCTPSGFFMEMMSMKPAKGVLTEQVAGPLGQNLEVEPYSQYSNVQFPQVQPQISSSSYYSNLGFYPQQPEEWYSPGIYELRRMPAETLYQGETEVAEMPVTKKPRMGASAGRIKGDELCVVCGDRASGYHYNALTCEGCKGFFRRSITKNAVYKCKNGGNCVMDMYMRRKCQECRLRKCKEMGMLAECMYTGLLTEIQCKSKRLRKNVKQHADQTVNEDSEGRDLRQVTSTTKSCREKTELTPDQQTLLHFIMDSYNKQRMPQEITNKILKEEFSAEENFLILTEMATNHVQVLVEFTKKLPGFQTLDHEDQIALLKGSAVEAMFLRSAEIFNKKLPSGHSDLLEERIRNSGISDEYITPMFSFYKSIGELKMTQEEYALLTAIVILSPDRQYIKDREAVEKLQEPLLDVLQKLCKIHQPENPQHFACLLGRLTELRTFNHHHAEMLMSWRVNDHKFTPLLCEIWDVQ

VDR [5] = molecular target: T2, VDR (Homo sapiens, UniProt P11473); conditions: Non-Patent Documents 2 and 3; cited from earlier work
T2 sequence (P11473 1-427): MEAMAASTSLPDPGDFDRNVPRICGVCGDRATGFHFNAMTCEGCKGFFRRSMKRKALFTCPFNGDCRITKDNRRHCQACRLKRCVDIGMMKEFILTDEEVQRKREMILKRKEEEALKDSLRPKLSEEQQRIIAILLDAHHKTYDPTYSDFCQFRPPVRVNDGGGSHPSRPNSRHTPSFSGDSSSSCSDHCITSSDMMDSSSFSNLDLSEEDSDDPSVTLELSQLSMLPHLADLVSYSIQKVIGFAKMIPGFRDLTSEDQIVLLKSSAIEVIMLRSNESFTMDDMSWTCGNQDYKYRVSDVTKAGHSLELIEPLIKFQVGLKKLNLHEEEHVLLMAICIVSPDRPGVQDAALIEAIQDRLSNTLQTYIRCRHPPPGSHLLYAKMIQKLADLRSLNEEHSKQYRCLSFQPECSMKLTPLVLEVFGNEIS

leukemic cells = conditions: cited from earlier work
[6] = Example 3: mice injected intraperitoneally, body weight and plasma calcium; conditions: mouse, in vivo, ip
[7] = tested on: Cyp24a1, calbindin D9k, Trpv6, Trpv5; assay: Example 5: intraperitoneal administration to mice, mRNA expression in kidney and intestinal mucosa; assay type: in vivo; conditions: day 8
Source text: Blood was collected by heart puncture on day 8 and tissue mRNAs on day 8 were examined.

[8] = tested on: Cyp24a1, calbindin D9k, Trpv6, Trpv5; assay: Example 5: oral administration to mice, mRNA expression in kidney and intestinal mucosa; assay type: in vivo
Source text: Blood was collected from the tail on days 0, 2, 4, 6, and 8, and by heart puncture on day 12. […]
as §1

myeloid leukemia cells = conditions: compared with 1,25(OH)2D3; Honma et al. 1983; cited from earlier work
[9] = Honma et al. 1983; cited from earlier work
VDR target gene CYP24 = assay: Example 3: mice injected intraperitoneally, expression of VDR target gene CYP24 in kidney; assay type: in vivo; conditions: intraperitoneal, every other day, day 8
U937 cells = assay: Differentiation markers of myeloid leukemia U937 cells; assay type: cell-based
[10] = molecular target: T1, farnesoid X receptor (FXR); assay: Effect on FXR (FIG. 1); conditions: 18 μM
[11] = molecular target: T3, G protein-coupled bile acid receptor 1 (GPBAR1) (Homo sapiens, UniProt Q8TDU6); assay: Effect on GPBAR1 (FIG. 1); conditions: 10 μM
T3 sequence (Q8TDU6 1-330): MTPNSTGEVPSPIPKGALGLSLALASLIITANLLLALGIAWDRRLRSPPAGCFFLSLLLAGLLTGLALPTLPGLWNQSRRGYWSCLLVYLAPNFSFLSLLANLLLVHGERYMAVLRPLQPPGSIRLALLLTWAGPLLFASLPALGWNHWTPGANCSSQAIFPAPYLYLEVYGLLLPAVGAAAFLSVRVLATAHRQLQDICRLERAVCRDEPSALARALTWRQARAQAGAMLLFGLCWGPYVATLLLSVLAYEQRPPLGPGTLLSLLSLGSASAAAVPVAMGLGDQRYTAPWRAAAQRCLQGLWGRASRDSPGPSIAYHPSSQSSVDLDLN

VDR [12] = molecular target: T4, VDR (Homo sapiens, UniProt P11473); assay: VDR activation, GAL4-VDR luciferase reporter in HEK293 cells; conditions: compared with lithocholic acid and lithocholic acid acetate
T4 sequence (P11473 127-423 limits assumed): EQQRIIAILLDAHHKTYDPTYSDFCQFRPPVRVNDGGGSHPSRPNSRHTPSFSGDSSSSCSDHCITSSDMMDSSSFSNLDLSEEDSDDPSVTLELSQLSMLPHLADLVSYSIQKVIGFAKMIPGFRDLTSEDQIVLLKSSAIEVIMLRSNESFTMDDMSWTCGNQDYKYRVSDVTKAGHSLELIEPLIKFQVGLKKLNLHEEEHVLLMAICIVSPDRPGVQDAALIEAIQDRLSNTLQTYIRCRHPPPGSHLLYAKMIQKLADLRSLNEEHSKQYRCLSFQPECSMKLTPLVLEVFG
Experimental: Cells were solubilized 16 to 18 hours later, and evaluated for the luciferase activity.

## lithocholic acid acetate
[1]; 10 μM
  induction of differentiation marker (Nitro blue tetrazolium-reducing activity), HL60 cells: weakly
[1]; 30 μM
  induction of differentiation marker (Nitro blue tetrazolium-reducing activity), HL60 cells: effectively
[2]
  body weight: did not decrease their body weight
[3]
  body weight: did not affect the body weight or plasma calcium
  plasma calcium: did not affect the body weight or plasma calcium
[4]
  activity on FXR: weaker than that of chenodeoxycholic acid and comparable to that of lithocholic acid
VDR [5]
  function and potency as VDR ligand: activated VDR more potently than lithocholic acid; also recorded: more potency on VDR than lithocholic acid
Leukemic cells
  differentiation of leukemic cells: induced the differentiation of leukemic cells

## C=C1/C(=C\C=C2/CCC[C@]3(C)[C@@H]([C@H](C)CCCC(C)C)CC[C@@H]23)C[C@@H](O)C[C@@H]1O [1α-hydroxyvitamin D3]
[6]
  body weight of mice: decreased the body weight of mice
[7]; 12.5 nmol/kg
  intestinal mucosa Cyp24a1 expression: induced the intestinal mucosa Cyp24a1 expression
  kidney Cyp24a1 expression: effectively induced the expression
  kidney Trpv5 expression: effectively induced the expression
  kidney Trpv6 expression: effectively induced the expression
  kidney calbindin D9k expression: effectively induced the expression
[8]; 1 day single oral dose (data not shown)
  intestinal mucosa Cyp24a1 expression: not observed
[8]; 10 day oral administration, 12.5 nmol/kg
  intestinal mucosa Cyp24a1 expression: not increased
Myeloid leukemia cells
  survival time of the mice inoculated with leukemia cells: more effective than 1,25(OH)2D3 in increasing the survival time
[9]
  conversion to 1,25-dihydroxyvitamin D3 after injection: rapidly converted to 1,25-dihydroxyvitamin D3

## CCC(=O)O[C@@H]1CC[C@@]2(C)[C@H](CC[C@@H]3[C@@H]2CC[C@]2(C)[C@@H]([C@H](C)CCC(=O)O)CC[C@@H]32)C1 [lithocholic acid propionate]
[6]
  body weight of mice: did not adversely affect the body weight or the blood calcium level
VDR target gene CYP24
  expression of the VDR target gene CYP24 in kidney: induced the expression of the VDR target gene in the organ
[1]
  induction of differentiation markers, HL-60 cells: induced the differentiation markers
[1]; 10 μM
  induction of differentiation marker (Nitro blue tetrazolium-reducing activity), HL60 cells: weakly
[1]; 30 μM
  induction of differentiation marker (Nitro blue tetrazolium-reducing activity), HL60 cells: effectively
U937 cells
  induction of differentiation markers, U937 cells: induced the differentiation markers
[7]; 0.7 mmol/kg
  intestinal mucosa target gene expression: not effective in inducing intestinal mucosa target gene expression
  kidney Cyp24a1 expression: induced the expression of kidney Cyp24a1 as effectively as 1α(OH)D3
[8]; oral (gavage), 0.7 mmol/kg and 1 mmol/kg, day 12
  kidney Cyp24a1 expression: induced the kidney Cyp24a1 expression as effectively as 1α(OH)D3
[8]; oral (gavage), day 12
  kidney calbindin D9k expression: not induced
[10]
  potency on FXR: extremely weak potency on FXR
[11]
  effects on GPBAR1: extremely weak effects
VDR [12]
  selectivity as VDR ligand (VDR versus FXR and GPBAR1): more selective VDR ligand (activating agent) than lithocholic acid and lithocholic acid acetate
